Key:
Conditions in all cases: 72 h
HL-60 [1] = assay: cell viability (% survival relative to DMSO control); higher = less cytotoxic
Summary of the method: (§1)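 In 384-well plates, the full library was rescreened in duplicate on HL-60 cells in RPMI 1640 with 10% FBS, at 1–10,000 nM in five tenfold concentrations, for 72 h at 37 °C, 5% CO2. Each run also held DMSO or 100 nM of one of three metabolic inhibitors. Viability was measured by CellTiter-Glo and normalised to DMSO wells and to wells with proteasome inhibitor, present at 10 μM. Any area under the curve comes from four-parameter log-logistic fitting with drc and PharmacoGx.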

HL-60 [2] = assay: area under dose-response curve (viability, 1 nM-10 uM) (fraction (0-1)); higher = more sensitive
Summary of the method: as §1

[3] = system: myeloid leukemia patient primary cells Pat.10; assay: cell viability (% survival relative to DMSO control); higher = less cytotoxic
Summary of the method: (§2)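 Mononuclear cells from patients with AML or CML were thawed, purified on Ficoll and placed in RPMI 1640 with 10% FBS at 10,000 cells/well on 384-well plates. The plates came pre-printed with 70 compounds at five tenfold concentrations spanning 1–10,000 nM, in duplicate, and cells were exposed for 72 h. CellTiter-Glo gave viability, scaled between DMSO wells and wells with 10 μM proteasome inhibitor. Where reported, area under the curve was obtained from log-logistic fits with four parameters using the drc and PharmacoGx R packages.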

[4] = system: myeloid leukemia patient primary cells Pat.11; assay: as above
Summary of the method: as §2

[5] = system: myeloid leukemia patient primary cells Pat.12; assay: as above
Summary of the method: as §2

[6] = system: myeloid leukemia patient primary cells Pat.13; assay: as above
Summary of the method: as §2

[7] = system: myeloid leukemia patient primary cells Pat.14; assay: as above
Summary of the method: as §2

[8] = system: myeloid leukemia patient primary cells Pat.15; assay: as above
Summary of the method: as §2

[9] = system: myeloid leukemia patient primary cells Pat.1; assay: as above
Summary of the method: as §2

[10] = system: myeloid leukemia patient primary cells Pat.2; assay: as above
Summary of the method: as §2

[11] = system: myeloid leukemia patient primary cells Pat.3; assay: as above
Summary of the method: as §2

[12] = system: myeloid leukemia patient primary cells Pat.4; assay: as above
Summary of the method: as §2

[13] = system: myeloid leukemia patient primary cells Pat.5; assay: as above
Summary of the method: as §2

[14] = system: myeloid leukemia patient primary cells Pat.6; assay: as above
Summary of the method: as §2

[15] = system: myeloid leukemia patient primary cells Pat.7; assay: as above
Summary of the method: as §2

[16] = system: myeloid leukemia patient primary cells Pat.8; assay: as above
Summary of the method: as §2

[17] = system: myeloid leukemia patient primary cells Pat.9; assay: as above
Summary of the method: as §2

[18] = system: myeloid leukemia patient primary cells Pat.10; assay: area under dose-response curve (viability, 1 nM-10 uM) (fraction (0-1)); higher = more sensitive
Procedure: (§3)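 AUC (0–1, higher = more sensitive) of the 5-point dose–response (1 nM–10 µM, 72 h, CellTiter-Glo) in primary AML/CML patient mononuclear cells. 0.030103 is the floor for inactive compounds.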

[19] = system: myeloid leukemia patient primary cells Pat.11; assay: as above
Procedure: as §3

[20] = system: myeloid leukemia patient primary cells Pat.12; assay: as above
Procedure: as §3

[21] = system: myeloid leukemia patient primary cells Pat.13; assay: as above
Procedure: as §3

[22] = system: myeloid leukemia patient primary cells Pat.14; assay: as above
Procedure: as §3

[23] = system: myeloid leukemia patient primary cells Pat.15; assay: as above
Procedure: as §3

[24] = system: myeloid leukemia patient primary cells Pat.1; assay: as above
Procedure: as §3

[25] = system: myeloid leukemia patient primary cells Pat.2; assay: as above
Procedure: as §3

[26] = system: myeloid leukemia patient primary cells Pat.3; assay: as above
Procedure: as §3

[27] = system: myeloid leukemia patient primary cells Pat.4; assay: as above
Procedure: as §3

[28] = system: myeloid leukemia patient primary cells Pat.5; assay: as above
Procedure: as §3

[29] = system: myeloid leukemia patient primary cells Pat.6; assay: as above
Procedure: as §3

[30] = system: myeloid leukemia patient primary cells Pat.7; assay: as above
Procedure: as §3

[31] = system: myeloid leukemia patient primary cells Pat.8; assay: as above
Procedure: as §3

[32] = system: myeloid leukemia patient primary cells Pat.9; assay: as above
Procedure: as §3

BV-173 [33] = system: BV-173
Summary of the method: (§4)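 For the IC50, dose–response curves were fitted with a log-logistic model. The data came from fifteen myeloid leukaemia cell lines grown in RPMI 1640 at densities in the linear growth range and incubated in 384-well plates for 72 h at 37 °C under 5% CO2. Doses were five tenfold steps from 1 to 10,000 nM in duplicate, and luminescent ATP viability was normalised to vehicle and to a positive control at 10 µM before four-parameter fitting.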

HEL [34] = system: HEL
Summary of the method: as §4

HL-60 [35] = system: HL-60
Summary of the method: as §4

K-562 [36] = system: K-562
Summary of the method: as §4

KCL-22 [37] = system: KCL-22
Summary of the method: as §4

KG-1 [38] = system: KG-1
Summary of the method: as §4

KU-812 [39] = system: KU-812
Summary of the method: as §4

LAMA-84 [40] = system: LAMA-84
Summary of the method: as §4

ML-2 [41] = system: ML-2
Summary of the method: as §4

MOLM-13 [42] = system: MOLM-13
Summary of the method: as §4

MV4-11 [43] = system: MV4-11
Summary of the method: as §4

Mono-Mac-6 [44] = system: Mono-Mac-6
Summary of the method: as §4

NOMO-1 [45] = system: NOMO-1
Summary of the method: as §4

SHI-1 [46] = system: SHI-1
Summary of the method: as §4

THP-1 [47] = system: THP-1
Summary of the method: as §4

BV-173 [48] = assay: cell viability (% survival relative to DMSO control, bortezomib = 0%); higher = less cytotoxic
Summary of the method: (§5)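 In 384-well plates pre-printed with compounds at 1, 10, 100, 1000 or 10000 nM, duplicate wells received cells from 10 AML and 5 CML lines at densities within the linear growth range. The plates stayed at 37 °C with 5% CO2 for 72 h before CellTiter-Glo luminescence was recorded. Each entry is averaged percent survival. Scaling placed vehicle at 100% and a 10 µM positive control at 0%.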

HEL [49] = assay: as above
Summary of the method: as §5

HL-60 [50] = assay: as above
Summary of the method: as §5

K-562 [51] = assay: as above
Summary of the method: as §5

KCL-22 [52] = assay: as above
Summary of the method: as §5

KG-1 [53] = assay: as above
Summary of the method: as §5

KU-812 [54] = assay: as above
Summary of the method: as §5

LAMA-84 [55] = assay: as above
Summary of the method: as §5

ML-2 [56] = assay: as above
Summary of the method: as §5

MOLM-13 [57] = assay: as above
Summary of the method: as §5

MV4-11 [58] = assay: as above
Summary of the method: as §5

Mono-Mac-6 [59] = assay: as above
Summary of the method: as §5

NOMO-1 [60] = assay: as above
Summary of the method: as §5

SHI-1 [61] = assay: as above
Summary of the method: as §5

THP-1 [62] = assay: as above
Summary of the method: as §5

Cn1cc(-c2ccncc2)c(-c2ccc(OCc3ccc4ccccc4n3)cc2)n1
cell viability [%], HL-60 [1]
Conditions	0.001 µM	0.01 µM	0.1 µM	1 µM	10 µM
co-treatment: AZD3965 100 nM	94.1	101	101	96.7	103
co-treatment: DMSO vehicle	99.1	94.8	102	98.248	101
co-treatment: GSK2194069 100 nM	103	101	107	90.9	81.8
co-treatment: pictilisib 100 nM	98.7	101	114	94.4	107

HL-60 [2]
Conditions	area under dose-response curve
co-treatment: AZD3965 100 nM	< 0.0301
co-treatment: DMSO vehicle	< 0.0301
co-treatment: GSK2194069 100 nM	0.05
co-treatment: pictilisib 100 nM	0.05

O=C(O)C(=S)Cc1c[nH]c2ccc(F)cc12
cell viability [%], HL-60 [1]
Conditions	0.001 µM	0.01 µM	0.1 µM	1 µM	10 µM
co-treatment: AZD3965 100 nM	94	98.2	106	103	101.9
co-treatment: DMSO vehicle	99.1	101	106	102	104
co-treatment: GSK2194069 100 nM	90.8	101	103	104	104
co-treatment: pictilisib 100 nM	91.7	99.9	101.8	101	97.2

HL-60 [2]
Conditions	area under dose-response curve
co-treatment: AZD3965 100 nM	< 0.0301
co-treatment: DMSO vehicle	< 0.0301
co-treatment: GSK2194069 100 nM	< 0.0301
co-treatment: pictilisib 100 nM	< 0.0301

CN(C)C(=O)n1nnnc1Cc1ccc(-c2ccccc2)cc1
cell viability [%]
Conditions	1 nM	10 nM	100 nM	1000 nM	10000 nM
[3]	96.5	75.2	> 100	20.7	15.5
[4]	> 100	87.4	91.7	93.6	22
[5]	94.7	91.7	90.7	93	41.2
[6]	84.1	60.2	92.1	87.3	7.43
[7]	97.8	63.7	95.5	32	0.671
[8]	94.8	96	96.2	89.5	29.8
[9]	98.5	74.4	89.4	87.9	4.27
[10]	97.7	78.6	> 100	99.1	37.3
[11]	> 100	64.8	82.7	30.3	2.63
[12]	97.2	81	84.8	> 100	2.63
[13]	60.8	1.18	63	1.33	2.24
[14]	> 100	70.8	97.7	> 100	21.8
[15]	> 100	38.7	73.7	24.8	13.2
[16]	99.4	97.5	71.9	85.5	4.49
[17]	64	5.6	60.2	9.03	0.492

Conditions	area under dose-response curve
[18]	0.298
[19]	0.0778
[20]	0.044
[21]	0.105
[22]	0.277
[23]	0.0943
[24]	0.124
[25]	0.0497
[26]	0.278
[27]	0.115
[28]	0.798
[29]	0.0748
[30]	0.331
[31]	0.132
[32]	0.766

CC(C)(O)CNc1nc(Nc2ccnc(C(F)(F)F)c2)nc(-c2cccc(C(F)(F)F)n2)n1 [AG-221]
cell viability [%], HL-60 [1]
Conditions	0.001 µM	0.01 µM	0.1 µM	1 µM	10 µM
co-treatment: AZD3965 100 nM	93.5	105	100	98.6	104
co-treatment: DMSO vehicle	96.6	102	101	97.1	103
co-treatment: GSK2194069 100 nM	85.8	95.9	100	89	94.2
co-treatment: pictilisib 100 nM	89.3	104	102	94.9	108

HL-60 [2]
Conditions	area under dose-response curve
co-treatment: AZD3965 100 nM	< 0.0301
co-treatment: DMSO vehicle	< 0.0301
co-treatment: GSK2194069 100 nM	< 0.0301
co-treatment: pictilisib 100 nM	< 0.0301

CCOC(=O)c1cncn1[C@H](C)c1ccccc1 [Etomidate]
Conditions	IC50 (cell viability) [µM]
BV-173 [33]	> 10
HEL [34]	> 10
HL-60 [35]	> 10
K-562 [36]	> 10
KCL-22 [37]	> 10
KG-1 [38]	> 10
KU-812 [39]	> 10
LAMA-84 [40]	> 10
ML-2 [41]	> 10
MOLM-13 [42]	> 10
MV4-11 [43]	> 10
Mono-Mac-6 [44]	> 10
NOMO-1 [45]	> 10
SHI-1 [46]	> 10
THP-1 [47]	> 10

N#Cc1ccnc(N2C(=O)CC[C@H]2C(=O)N(c2cncc(F)c2)C(C(=O)NC2CC(F)(F)C2)c2ccccc2Cl)c1 (some centres not stated) [Ivosidenib]
Conditions	IC50 (cell viability) [µM]
BV-173 [33]	> 10
HEL [34]	> 10
HL-60 [35]	> 10
K-562 [36]	> 10
KCL-22 [37]	> 10
KG-1 [38]	> 10
KU-812 [39]	> 10
LAMA-84 [40]	> 10
ML-2 [41]	> 10
MOLM-13 [42]	> 10
MV4-11 [43]	> 10
Mono-Mac-6 [44]	> 10
NOMO-1 [45]	> 10
SHI-1 [46]	> 10
THP-1 [47]	> 10

cell viability [%]
Conditions	1 nM	10 nM	100 nM	1000 nM	10000 nM
BV-173 [48]	93.2	95.1	95.8	104	92.2
HEL [49]	89.5	104	114	105	121
HL-60 [50]	112	100	116	95.3	92.1
K-562 [51]	90.3	105	101	99.2	93.3
KCL-22 [52]	92.3	95.3	110	99	93.3
KG-1 [53]	92.4	105	106	98.2	78.2
KU-812 [54]	92.7	102	107	106	87.4
LAMA-84 [55]	112	101	110	107	81.4
ML-2 [56]	107	85.4	105	98.1	92
MOLM-13 [57]	111	103	109	96	95.1
MV4-11 [58]	98	104	107	110	94.5
Mono-Mac-6 [59]	97.8	88.9	108	90.2	81.5
NOMO-1 [60]	97.8	95.6	103	104	90.8
SHI-1 [61]	99.1	104	100	95.4	104
THP-1 [62]	103	94.9	107	102	96
